Results on one molecule are retold here after patent publication US9066865B2, “Pharmaceutical compositions for the treatment of inner ear disorders” (AURIS MEDICAL AG, priority 2005, dated 2015).

Data set [1] can be described thus: in vitro release of Ketamine from hyaluronic acid gel into PBS (without membrane or Franz cell with filter/dialysis membrane). It is filed as physicochemical. As to the method:
A hyaluronic acid solution (Hylumed, Genzyme Corp.) was prepared at concentrations of 5 and 7.5% in phosphate buffered saline (PBS). At 8%, handling of the gel had shown to be difficult due to the high viscosity. S-(+)-Ketamine hydrochloride (Sigma-Aldrich) was dissolved at a concentration of 2% (weight/weight) equivalent to 73 mM. To evaluate the importance of the drug load factor, concentrations of 0.5% and 2.5% were also tested. Release of the pharmacologically active agent was measured in PBS, a common receiver fluid for controlled release studies, either without any membrane or by using a filter membrane or a dialysis membrane (Spectropore) in a Franz cell (PermeGear). The membranes were employed to mimic the rate limiting membrane of the round window. The temperature of the fluid was maintained constant at body temperature. The bottom chamber of the Franz cell was filled with 5 ml of PBS as the receiver fluid. The receiver fluid contained a stir bar for continuous agitation. The upper chamber was filled with approximately 50 mg of gel and the cell assembled. At various time points, aliquots (typically 1 ml) were withdrawn and analyzed by UV spectrophotometry (Agilent 8453). The absorbance at 215 nm was measured and the concentration calculated using an extinction coefficient of 30 ml/mg cm. As the volume of the aliquot was known, the total amount released could be determined. Each time an aliquot was withdrawn, the same volume of PBS was placed back into the Franz cell chamber.

Data set [2] is described as follows: pharmacokinetic study: Ketamine in perilymph after 2.8% hyaluronic acid gel on the round window membrane. Particulars: 1 mM, guinea pig. In kind it is in vivo. As to the method: In a second step, a pharmacokinetic study with pigmented guinea pigs was carried out in order to evaluate in vivo the diffusion of Ketamine from a hyaluronic acid gel formulation across the round window membrane into the inner ear. A total of 30 animals were tested for concentrations of the pharmaceutical compound in the perilymph at 1 hour, 3 hours, 8 hours, 24 hours and 72 hours following gel administration; 6 animals per time point were tested.
Animals were anaesthetized with a single-dose i.p. injection of 0.3 ml/kg of pentobarbital at 6% (Ceva sante animale), and the right ear bulla was opened using a posterior auricular surgical procedure (dorsal approach). 2 microliters of the hyaluronic gel formulation (2.8% Hylumed Sterile in artificial perilymph, molecular weight 2.44 million; Genzyme Corp.) with S-(+)-Ketamine (Sigma-Aldrich) at a concentration of 1 milliM were then deposited onto the round window membrane of the inner ear. At each of the aforementioned time points, one group of animals was decapitated under deep anaesthesia (pentobarbital 50 mg/kg). […] The samples were then analyzed by liquid chromatography mass spectrometry with a limit of quantification of 0.2 ng/ml (HPLC instrument: Perkin Elmer series 200; mass spectrometer detector: MSD Sciex API 4000 Applied Biosystems; column: Zorbax SB CN 50×2.1 mm 5 μm-Agilent technologies).

The subject of data set [3] is PCP binding site of the NMDA receptor. As to conditions: relative to (R)-ketamine; cited from earlier work.

In the case of `CN[C@@]1(c2ccccc2Cl)CCCCC1=O` (stereo in doubt) [Ketamine, 2-(2-chlorophenyl)-2-(methylamino)-cyclohexanone], in data set [1] (7.5% hyaluronic acid gel, rate limiting membrane), the “release rate at 7.5% hyaluronic acid compared with 5%” value is recorded as “less quickly than at 5%”. Moreover, the “duration of release of Ketamine into PBS” value is “about three days” in data set [1] (Franz cell with dialysis membrane) and “approximately 60 hours” in data set [1] (Franz cell with filter membrane). The “release speed compared with Ketamine hydrochloride solution” value in data set [1] (gel with 0.5% Ketamine by weight, Franz cell with filter membrane) was “nearly as fast as a simple Ketamine hydrochloride solution”. Also, in data set [1] (gel with 2.5% Ketamine loading factor, Franz cell with filter membrane), the “amount released in the first hour (initial burst)” value is “about 20%”. Moreover, in data set [1] (hyaluronic acid gel, no rate limiting membrane, after one hour), the “share of the total cumulative concentration in PBS achieved” value is around 50%. Besides, the “duration of release of Ketamine from hyaluronic acid gel” value in data set [1] (no membrane) was “over just a few hours”. For the same molecule, the “time to maximum concentration of Ketamine in perilymph” value in data set [2] (2 microliters on round window membrane) is “within one hour”. Moreover, in data set [2] (LOQ 0.2 ng/ml), the “last quantifiable levels in perilymph” value is on record as “after three days”. For the same molecule, the “higher affinity to the PCP binding site of the NMDA receptor than (R)-ketamine” value in data set [3] is recorded as 3-4 fold.
